From article PMC4176318 (ACS Chemical Neuroscience, 2014) come the findings set out here.

The structures appear in SMILES notation.

The test system of this assay is C57Bl/6J mice. Nature of the assay: Tail suspension test. In kind it is in vivo, mouse. Particulars: 10 mg/kg i.p., 30 min prior to testing, 6 min trial; saline 143.7 ± 3.3 s.

For `CN(C)CCCC1(c2ccc(F)cc2)OCc2cc(C#N)ccc21` (centres unmarked) [citalopram], the “immobility in TST” value is 29.7 ± 14.5 s.

Regarding `COCCCC/C(=N\OCCN)c1ccc(C(F)(F)F)cc1` [fluvoxamine], the “immobility in TST” value was 59.0 ± 12.5 s.
